Measured values from BindingDB's records for doi:10.1021/acs.biochem.7b00078 (The University of Queensland, 2017).
Peptide text beside a SMILES is read from it. * marks the point of attachment. FITC = O=C1OC2(c3ccc(O)cc3Oc3cc(O)ccc32)c2ccc(NC(=S)*)cc21; Biotin = O=C1N[C@H]2[C@H](CS[C@H]2CCCCC(=O)*)N1

Columns and labels:
[1] = target: T1, Na(+)/H(+) exchange regulatory cofactor NHE-RF1 [133-300] (Homo sapiens, UniProt O14745); experiment: Isothermal Titration Calorimetry (ITC); details: pH 8; 25 °C
T1 construct: 133-300
T1 sequence (O14745 whole entry): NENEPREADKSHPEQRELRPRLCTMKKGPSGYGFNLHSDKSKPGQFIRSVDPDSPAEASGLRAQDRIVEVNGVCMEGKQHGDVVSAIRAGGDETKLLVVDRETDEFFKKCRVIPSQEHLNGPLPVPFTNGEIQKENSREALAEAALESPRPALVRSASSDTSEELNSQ
Method: (§1) ITC measurements were conducted on a Microcal iTC200 (Malvern Instruments) in buffer consisting of 25 mM Tris (pH 8.0) and 100 mM NaCl. Proteins were exchanged into ITC buffer by gel filtration using a Superdex200 column. Wild-type modified synthetic peptides were purchased from Genscript and are described in Results. One millimolar PTHR peptides (wild-type and mutant variants) were titrated into 100 μM individual proteins, PDZ1 or PDZ2, at 25 °C.

[2] = target: T2, Na(+)/H(+) exchange regulatory cofactor NHE-RF1 [1-140] (Homo sapiens, UniProt O14745); experiment: Isothermal Titration Calorimetry (ITC); details: pH 8; 25 °C
T2 construct: 1-140
T2 sequence (O14745 whole entry): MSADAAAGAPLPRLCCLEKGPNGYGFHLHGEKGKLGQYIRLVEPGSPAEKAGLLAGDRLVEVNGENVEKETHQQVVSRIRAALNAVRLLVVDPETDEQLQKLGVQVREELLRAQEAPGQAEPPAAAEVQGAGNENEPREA
Method: as §1

[3] = target: T1, Na(+)/H(+) exchange regulatory cofactor NHE-RF1 [133-300]; experiment: Fluorescent Polarization Competition Assay; details: 23 °C
Method: (§2) Competition assays were performed in FP buffer (DTT was avoided for Cys-PTHRct-9) containing fixed concentrations of both the fluorescently labeled peptide andprotein following the protocol described by Madden and coworkers. [Cushing et al., Biochemistry, 47:10084-10098] This mixture was equilibrated for 20 min in the dark at room temperature. The unlabeled competitor peptide was dissolved and serially diluted in storage buffer supplemented with 5% DMSO (Sigma). Each serial dilution was aliquoted at 1/10 final volume, to which was added 9/10 volume of the protein/peptide mixture. All FP assays were performed in a 96-well format. Polarized fluorescence intensities were measured at 23 °C with a PerkinElmer Wallac Victor3 multilabel counter using excitation and emission wavelengths of 485 and 535 nm, respectively, for the FITC-labeled peptide.

[4] = target: T2, Na(+)/H(+) exchange regulatory cofactor NHE-RF1 [1-140]; experiment: Fluorescent Polarization Competition Assay; details: 23 °C
Method: as §2

[5] = target: T1, Na(+)/H(+) exchange regulatory cofactor NHE-RF1 [133-300]; experiment: Surface Plasmon Resonance (SPR); details: pH 7.4; 15 °C
Method: (§3) SPR measurements were performed with a Biacore X100 instrument (GE Healthcare Life Sciences, Piscataway, NJ) at 15.0 °C. The biotinylated PTHRct-22 ligand was immobilized on an SA streptavidin sensor chip (GE Healthcare Life Sciences) usingthe manufacturer's protocol until the desired response target was reached. PDZ1 or PDZ2 analyte, dissolved in 10 mM HEPES buffer (pH 7.4), 150 mM NaCl, 3 mM EDTA, and 0.005% surfactant polysorbate 20, was injected on the PTHRct-coated sensor surface at increasing concentrations from 10 nM to 100 μM. At the end of each ligand injection−dissociation cycle, the sensor chip was regenerated with 4.0 M MgCl2, 50 mM triethylamine (pH 9.15), and HBS-EP buffer.

[6] = target: T2, Na(+)/H(+) exchange regulatory cofactor NHE-RF1 [1-140]; experiment: Surface Plasmon Resonance (SPR); details: pH 7.4; 15 °C
Method: as §3

In the case of H-QEEWETVM-OH [QEEWETVM], the Kd [1] is reported as 9.7 µM and the Kd [2] is reported as 11.7 µM.
For CSCC[C@H](NC(=O)[C@@H](NC(=O)[C@@H](NC(=O)[C@H](CCC(=O)O)NC(=O)[C@H](Cc1c[nH]c2ccccc12)NC(=O)[C@H](CCC(=O)O)NC(=O)[C@H](CCC(=O)O)NC(=O)[C@H](CCC(N)=O)NC(=O)[C@H](CC(C)C)NC(=S)Nc1ccc2c(c1)C(=O)OC21c2ccc(O)cc2Oc2cc(O)ccc21)[C@@H](C)O)C(C)C)C(=O)O [FITC-LQEEWETVM] ({FITC}-LQEEWETVM-OH), the Kd ([3]; pH 7) was 0.6 µM and the Kd ([4]; pH 7) was 1 µM.
H-LQEEWETVM-OH [LQEEWETVM] was tested, and the Ki ([4]; pH 7.4) was 1.4 µM.
With CSCC[C@H](NC(=O)[C@@H](NC(=O)[C@@H](NC(=O)[C@H](CCC(=O)O)NC(=O)[C@H](Cc1c[nH]c2ccccc12)NC(=O)[C@H](CCC(=O)O)NC(=O)[C@H](CCC(=O)O)NC(=O)[C@H](CCC(N)=O)NC(=O)[C@H](CC(C)C)NC(=O)[C@H](CC(C)C)NC(=O)[C@H](C)NC(=O)[C@@H]1CCCN1C(=O)[C@@H]1CCCN1C(=O)[C@H](CCCNC(=N)N)NC(=O)[C@H](CCC(=O)O)NC(=O)[C@@H]1CCCN1C(=O)[C@H](CS)NC(=O)[C@H](CO)NC(=O)[C@H](C)NC(=O)[C@H](CCC(=O)O)NC(=O)[C@H](CCC(=O)O)NC(=O)[C@H](CC(=O)O)NC(=O)CCCC[C@@H]1SC[C@@H]2NC(=O)N[C@@H]21)[C@@H](C)O)C(C)C)C(=O)O (Biotin-DEEASCPERPPALLQEEWETVM-OH) the Kd [5] was 11.5 µM, the Kd [6] was 16 µM and the Ki ([3]; pH 7.4) was 7 µM.
